Structures are written as SMILES.

IRE1a, sequence (O75460 19-977): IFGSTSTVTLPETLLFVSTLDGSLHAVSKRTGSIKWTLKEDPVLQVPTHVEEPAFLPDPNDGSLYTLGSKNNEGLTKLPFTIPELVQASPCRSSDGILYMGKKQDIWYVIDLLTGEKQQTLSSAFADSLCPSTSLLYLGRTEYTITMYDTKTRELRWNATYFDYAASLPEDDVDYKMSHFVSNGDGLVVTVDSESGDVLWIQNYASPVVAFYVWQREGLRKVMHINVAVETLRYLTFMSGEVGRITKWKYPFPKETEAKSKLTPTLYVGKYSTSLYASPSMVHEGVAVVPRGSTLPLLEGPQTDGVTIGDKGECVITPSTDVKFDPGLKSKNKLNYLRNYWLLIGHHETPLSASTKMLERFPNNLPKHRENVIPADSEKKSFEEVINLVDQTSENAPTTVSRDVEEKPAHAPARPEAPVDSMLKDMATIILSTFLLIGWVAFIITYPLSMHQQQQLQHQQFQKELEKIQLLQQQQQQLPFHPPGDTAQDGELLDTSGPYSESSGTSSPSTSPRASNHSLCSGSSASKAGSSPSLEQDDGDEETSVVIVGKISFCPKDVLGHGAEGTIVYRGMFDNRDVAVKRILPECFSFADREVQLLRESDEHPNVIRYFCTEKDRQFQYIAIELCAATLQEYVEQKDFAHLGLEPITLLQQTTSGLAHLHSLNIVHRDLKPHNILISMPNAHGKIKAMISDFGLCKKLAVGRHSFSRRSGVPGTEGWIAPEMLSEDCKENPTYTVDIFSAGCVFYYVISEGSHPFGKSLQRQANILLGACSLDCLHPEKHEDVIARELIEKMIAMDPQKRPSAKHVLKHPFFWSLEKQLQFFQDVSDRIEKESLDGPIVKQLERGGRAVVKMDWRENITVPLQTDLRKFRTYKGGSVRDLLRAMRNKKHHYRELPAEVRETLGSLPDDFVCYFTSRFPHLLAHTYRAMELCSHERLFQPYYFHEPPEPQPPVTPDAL

This assay concerns the target IRE1a (Homo sapiens, UniProt O75460). Nature of the assay: IRE1a Endoribonuclease Nanoluciferase Assay (XBP1 luciferase reporter in 293T cells). The class given is cell-based. The arrangement: endogenous in cells; host or cells: 293T. To be noted: XBP1 nanoluciferase reporter in 293T cells, ER stressor; tested as the salt named. As for the experimental part: Compounds disclosed herein were assessed for disruption of IRE1 signaling using a IRE1a Endoribonuclease Nanoluciferase Assay. […] About 24 hours later, the cells were transfected with Effectene. In a 15 mL tube, the following was added: 2 ug XBP1 luciferase reporter plasmid (PGK-Luc2-P2A-XBP1u-Nanoluciferase-PEST); 300 ul EC buffer; and 16 ul Enhancer, followed by incubation at room temp for 5 minutes. […] 2.6 mL cDMEM media was added. Old media was aspirated from the cells, followed by addition of 7 mL fresh media. Full transfection mixture was added dropwise to cells. Cells were incubated for 6 hours, followed by trypsinization, centrifugation and resuspension in 11 mL fresh cDMEM media. 100 μL of cells were plated per a well in a 96 well plate. A day later, ER stressors of choice +/− inhibitors were added. To harvest, media was aspirated from cells completely, then 50 uL 1× passive lysis buffer (Promega: E1941) was added per well and put on shaker (300 rpm) for 30 minutes at room temperature. […] 15 uL OneGlo (nanoluciferase kit, Promega N1630) was added. Plates were spun down, placed on shaker (300 rpm) for 10 minutes. Plates were read on luminometer, 1000 ms integration time per well. 15 uL Stop and Glo (nanoluciferase kit) was added. Plates were spun down, placed on shaker (300 rpm) for 10 minutes. Plates were read on luminometer, 1000 ms second integration time per well.
Regarding `CCc1nc(NS(=O)(=O)c2ccccc2Cl)ccc1-c1cc(CC)c2nc(N[C@H]3CC[C@H](N(C)C)CC3)ncc2c1` [Compound 117, 2-chloro-N-(5-(2-(((1r,4r)-4-(dimethylamino)cyclohexyl)amino)-8-ethylquinazolin-6-yl)-6-ethylpyridin-2-yl)benzenesulfonamide], the EC50 (commonly the concentration that produces a half-maximal response) was less than 5 nM.
For the compound `CCc1cc(-c2ccc(NS(=O)(=O)c3ccccc3C)nc2OC)cc2cnc(NC3CCC(NC)CC3)nc12` (stereo not drawn) [Compound 118, N-(5-(8-ethyl-2-(((1r,4r)-4-(methylamino)cyclohexyl)amino)quinazolin-6-yl)-6-methoxypyridin-2-yl)-2-methylbenzenesulfonamide], the EC50 was less than 5 nM.
For the compound `CCc1cc(-c2ccc(NS(=O)(=O)c3ccccc3C)nc2OC)cc2cnc(N[C@H]3CC[C@H](N(C)C)CC3)nc12` [Compound 119, N-(5-(2-(((1r,4r)-4-(dimethylamino)cyclohexyl)amino)-8-ethylquinazolin-6-yl)-6-methoxypyridin-2-yl)-2-methylbenzenesulfonamide], the EC50 is less than 5 nM.
On to `CCc1cc(-c2ccc(NS(=O)(=O)c3ccccc3Cl)nc2C)cc2cnc(N[C@H]3CC[C@H](NC)CC3)nc12` [Compound 122, 2-chloro-N-(5-(8-ethyl-2-(((1r,4r)-4-(methylamino)cyclohexyl)amino)quinazolin-6-yl)-6-methylpyridin-2-yl)benzenesulfonamide], for which the EC50 was less than 5 nM.
With `COc1nc(NS(=O)(=O)c2ccccc2Cl)ccc1-c1cc(C(C)(F)F)c2nc(N[C@H]3CC[C@H](N(C)C)CC3)ncc2c1` [Compound 124, 2-chloro-N-(5-(8-(1,1-difluoroethyl)-2-(((1r,4r)-4-(dimethylamino)cyclohexyl)amino)quinazolin-6-yl)-6-methoxypyridin-2-yl)benzenesulfonamide], the EC50 is less than 5 nM.
As for `CCc1cc(-c2ccc(NS(=O)(=O)c3ccccc3Cl)nc2C)cc2cnc(NC3CCC(N(C)CC)CC3)nc12` (stereo not drawn) [Compound 125, 2-chloro-N-(5-(8-ethyl-2-(((1r,4r)-4-(ethyl(methyl)amino)cyclohexyl)amino)quinazolin-6-yl)-6-methylpyridin-2-yl)benzenesulfonamide], the figure is less than 5 nM; as for `CCc1cc(-c2cc(F)c(NS(=O)(=O)c3ccccc3Cl)nc2OC)cc2cnc(NC3CCC(NC)CC3)nc12` (stereo not drawn) [Compound 127, 2-chloro-N-(5-(8-ethyl-2-(((1r,4r)-4-(methylamino)cyclohexyl)amino)quinazolin-6-yl)-3-fluoro-6-methoxypyridin-2-yl)benzenesulfonamide], less than 5 nM; as for `CCc1cc(-c2cc(F)c(NS(=O)(=O)c3ccccc3Cl)nc2OC)cc2cnc(N[C@H]3CC[C@H](N(C)C)CC3)nc12` [Compound 128, 2-chloro-N-(5-(2-(((1r,4r)-4-(dimethylamino)cyclohexyl)amino)-8-ethylquinazolin-6-yl)-3-fluoro-6-methoxypyridin-2-yl)benzenesulfonamide], less than 5 nM.
On to `CCc1cc(-c2ccc(NS(=O)(=O)c3ccccc3Cl)nc2C)cc2cnc(N[C@H]3CC[C@H](N(C)CC4CCC4)CC3)nc12` [Compound 130, 2-chloro-N-(5-(2-(((1r,4r)-4-((cyclobutylmethyl)(methyl)amino)cyclohexyl)amino)-8-ethylquinazolin-6-yl)-6-methylpyridin-2-yl)benzenesulfonamide], for which the EC50 was less than 5 nM.
The result for `Cc1nc(NS(=O)(=O)c2ccccc2Cl)ccc1-c1cc(C(C)(F)F)c2nc(N[C@H]3CC[C@H](N(C)C)CC3)ncc2c1` [Compound 131, 2-chloro-N-(5-(8-(1,1-difluoroethyl)-2-(((1r,4r)-4-(dimethylamino)cyclohexyl)amino)quinazolin-6-yl)-6-methylpyridin-2-yl)benzenesulfonamide] reads less than 5 nM.
The result for `CCc1cc(-c2ccc(NS(=O)(=O)c3ccccc3Cl)nc2C)cc2cnc(N[C@H]3CC[C@H](N(C)CCOC)CC3)nc12` [Compound 132, 2-chloro-N-(5-(8-ethyl-2-(((1r,4r)-4-((2-methoxyethyl)(methyl)amino)cyclohexyl)amino)quinazolin-6-yl)-6-methylpyridin-2-yl)benzenesulfonamide] reads less than 5 nM; that for `COc1nc(NS(=O)(=O)c2ccccc2Cl)ccc1-c1cc(C)c2nc(N[C@H]3CC[C@H](N(C)C)CC3)ncc2c1` [Compound 133, 2-chloro-N-(5-(2-(((1r,4r)-4-(dimethylamino)cyclohexyl)amino)-8-methylquinazolin-6-yl)-6-methoxypyridin-2-yl)benzenesulfonamide], less than 5 nM; that for `COc1nc(NS(=O)(=O)c2ccccc2Cl)ccc1-c1cc(C(F)(F)F)c2nc(N[C@H]3CC[C@H](N(C)C)CC3)ncc2c1` [Compound 135, 2-chloro-N-(5-(2-(((1r,4r)-4-(dimethylamino)cyclohexyl)amino)-8-(trifluoromethyl)quinazolin-6-yl)-6-methoxypyridin-2-yl)benzenesulfonamide], less than 5 nM.
Turning to `COCc1cc(-c2ccc(NS(=O)(=O)c3ccccc3Cl)nc2OC)cc2cnc(N[C@H]3CC[C@H](N(C)C)CC3)nc12` [Compound 137, 2-chloro-N-(5-(2-(((1r,4r)-4-(dimethylamino)cyclohexyl)amino)-8-(methoxymethyl)quinazolin-6-yl)-6-methoxypyridin-2-yl)benzenesulfonamide], the EC50 was less than 5 nM.
As to `CCc1cc(-c2ccc(NS(=O)(=O)c3ccccc3Cl)nc2OC)cc2cnc(N[C@H]3CC[C@@H](N(C)C)CC3)nc12` [Compound 141, 2-chloro-N-(5-(2-(((1s,4s)-4-(dimethylamino)cyclohexyl)amino)-8-ethylquinazolin-6-yl)-6-methoxypyridin-2-yl)benzenesulfonamide], the EC50 fell in the range of 100 to 10000 nM.
As for `COc1nc(NS(=O)(=O)c2ccccc2Cl)c(F)cc1-c1cc(C)c2nc(N[C@H]3CC[C@H](N(C)C)CC3)ncc2c1` [Compound 145, 2-chloro-N-(5-(2-(((1r,4r)-4-(dimethylamino)cyclohexyl)amino)-8-methylquinazolin-6-yl)-3-fluoro-6-methoxypyridin-2-yl)benzenesulfonamide], the figure is less than 5 nM; as for `COc1nc(NS(=O)(=O)c2ccccc2Cl)ccc1-c1cc(F)c2nc(N[C@H]3CC[C@H](N(C)C)CC3)ncc2c1` [Compound 148, 2-chloro-N-(5-(2-(((1r,4r)-4-(dimethylamino)cyclohexyl)amino)-8-fluoroquinazolin-6-yl)-6-methoxypyridin-2-yl)benzenesulfonamide], less than 5 nM.
Regarding `COc1nc(NS(=O)(=O)c2ccccc2Cl)c(F)cc1-c1ccc2nc(N[C@H]3CC[C@H](N(C)C)CC3)ncc2c1` [Compound 149, 2-chloro-N-(5-(2-(((1r,4r)-4-(dimethylamino)cyclohexyl)amino)quinazolin-6-yl)-3-fluoro-6-methoxypyridin-2-yl)benzenesulfonamide], the EC50 was 5 to 50 nM.
The result for `CN[C@H]1CC[C@H](Nc2ncc3cc(-c4cc(F)c(NS(=O)(=O)c5ccccc5Cl)nc4OC)ccc3n2)CC1` [Compound 150, 2-chloro-N-(3-fluoro-6-methoxy-5-(2-(((1r,4r)-4-(methylamino)cyclohexyl)amino)quinazolin-6-yl)pyridin-2-yl)benzenesulfonamide] reads 5 to 50 nM; that for `CCc1cc(-c2ccc(NS(=O)(=O)c3ccccc3Cl)nc2C)cc2cnc(N[C@@H]3CC[C@@H](N(C)C)C[C@@H]3F)nc12` [Compound 151, 2-chloro-N-(5-(2-(((1R,2S,4R)-4-(dimethylamino)-2-fluorocyclohexyl)amino)-8-ethylquinazolin-6-yl)-6-methylpyridin-2-yl)benzenesulfonamide], less than 5 nM; that for `CCc1cc(-c2ccc(NS(=O)(=O)c3cccc(Cl)c3Cl)nc2C)cc2cnc(N[C@H]3CC[C@H](N(C)C)CC3)nc12` [Compound 152, 2,3-dichloro-N-(5-(2-(((1r,4r)-4-(dimethylamino)cyclohexyl)amino)-8-ethylquinazolin-6-yl)-6-methylpyridin-2-yl)benzenesulfonamide], less than 5 nM.
As for `Cc1nc(NS(=O)(=O)c2ccccc2Cl)c(F)cc1-c1ccc2nc(N[C@H]3CC[C@H](N(C)C)CC3)ncc2c1` [Compound 153, 2-chloro-N-(5-(2-(((1r,4r)-4-(dimethylamino)cyclohexyl)amino)quinazolin-6-yl)-3-fluoro-6-methylpyridin-2-yl)benzenesulfonamide], the EC50 is 5 to 50 nM.
The result for `CCc1cc(-c2cnc(NS(=O)(=O)c3ccccc3Cl)nc2OC)cc2cnc(NC3CCC(N(C)C)CC3)nc12` (stereo not drawn) [Compound 154, 2-chloro-N-(5-(2-(((1r,4r)-4-(dimethylamino)cyclohexyl)amino)-8-ethylquinazolin-6-yl)-4-methoxypyrimidin-2-yl)benzenesulfonamide] reads less than 5 nM.
For the compound `COc1nc(NS(=O)(=O)c2ccccc2Cl)c(F)cc1-c1cc(F)c2nc(N[C@H]3CC[C@H](N(C)C)CC3)ncc2c1` [Compound 155, 2-chloro-N-(5-(2-(((1r,4r)-4-(dimethylamino)cyclohexyl)amino)-8-fluoroquinazolin-6-yl)-3-fluoro-6-methoxypyridin-2-yl)benzenesulfonamide], the EC50 lay within 50 to 100 nM.
